# Source: patent US20240181125A1, “COMPOSITIONS AND METHODS FOR SCARLESS WOUND HEALING IN DIABETES” (Washington University, priority 2022, published 2024)
# “Also recorded” adds a separate entry of the source. Bridge positions count the residues as written; N and C are the ends. Peptide text beside a SMILES is read from it. * marks the point of attachment. FITC = O=C1OC2(c3ccc(O)cc3Oc3cc(O)ccc32)c2ccc(NC(=S)*)cc21
# Assays:
# HaCaTs [1] = assay: Cell proliferation (dsDNA) under high glucose and TGFβ1, HaCaT; format: cell-based, human; details: high glucose, TGFβ1 10 ng/ml, PTβR2I 10 μg/mL; p<0.05
# Description: HDFs, HaCaTs, and HAECs were seeded in 96-well plates at respective densities of 1.5×10^4 cells/mL, 2×10^4 cells/mL, and 2×10^4 cells/mL. High glucose (4.5 g/L) basal medium with 1% P/S was used for the culture. After 24 hours, TGFβ1 (10 ng/ml) or TGFβ1 (10 ng/ml)/PTβR2I (10 μg/mL) was added to the medium. The culture continued for three days. The medium was then replaced by papain solution and incubated at 60° C. for 24 hours. The dsDNA content was tested using a Quant-iT™ PicoGreen dsDNA Assay Kit (Invitrogen).
# wounds of db/+ mice = assay: Wound assay on non-diabetic db/+ mice; details: mouse, in vivo
# Description: The same wound assay was performed on db/+ mice and monitored the wound closure for eight days (FIG. 11A). The No-treatment, Gel, and PTβR2I/Gel groups all had similar healing rates, with wound sizes less than 10% of the original after 8 days (FIG. 11B and C). To delineate the mechanism, in vitro immunoblotting was performed on dermal fibroblasts under normal glucose conditions that mimicked the microenvironment of db/+ mice (FIG. 11D).
# [2] = tested on: diabetic wounds of db/db mice; assay: Example 5 wound dressings on full-thickness excisional diabetic wounds; format: in vivo
# Description: After three days post-wound assay on db/db mice, the wounded tissues were collected and lysed. The protein concentrations were quantified by Bradford assay. The samples were tested using a Proteome Profiler Mouse Angiogenesis Array kit (R&D Systems) and a Mouse Cytokine Array kit (R&D Systems). The intensities of the dots on the membranes in the kits were quantified using Image Lab software. Eight-week-old, female db/db mice were used. Carprofen tablets (1/4 tablet per mouse) were given orally 48 hours before surgery and continued for seven days after the surgery as an analgesic. One day before surgery, the blood glucose levels of the mice were tested with a glucometer to confirm they were above 300 mg/dL. The mice were anesthetized by isoflurane inhalation, and the dorsal surface was thoroughly shaved. Then a 5-mm diameter biopsy punch (VWR) was used to create two symmetric full-thickness wounds on the back of each mouse. Next, 100 μL of liquid wound dressing, with or without 50 μg/mL of PTβ[…], was applied topically to the wound sites. The mice were observed every other day, and digital photographs of the wounds, with a ruler at the side, were acquired by a digital camera. Wound sizes were calculated using Image J. For in vitro tests, protein lysates were collected from HDFs. Pre-cooled cell scrapers were used to detach the cells, and the cells were re-suspended in RIPA lysis buffer with the inhibitor cocktail. For in vivo tests, wound skin tissues were washed three times with pre-cooled DPBS, dissected into small pieces, and re-suspended in RIPA lysis buffer containing protease and phosphatase inhibitors. […] After centrifugation at 12,000 g for 20 min, the supernatants were collected, and protein concentrations were measured using a Bradford protein assay kit (Bio-rad). […] Immunoblots were then washed with PBST and detected with a WesternBright HRP substrate detection kit (Advansta). […] The epidermal thickness was calculated from the MTS images in the wounded region. […] Images were acquired by Olympus confocal microscope and analyzed using ImageJ.
# [3] = tested on: human keratinocyte HaCaT cells; assay: Cytotoxicity of PTβR2I on HaCaT cells; format: cell-based; set-up: dose or concentration left out as unconfirmed; details: 1 to 100
# HaCaTs [4] = assay: 2D scratch migration assay, HaCaT; format: cell-based, human; details: high glucose and TGFβ1, 48 hours
# Description: HDFs, HaCaTs, and HAECs were cultured in 6-well plates using serum-free high glucose (4.5 g/L) basal medium with 1% P/S. After the cells reached confluency, a 200-μL pipet tip was used to scrape the cell monolayer. Then 3 mL of medium containing TGFβ1 (10 ng/ml) or TGFβ1 (10 ng/ml)/PTβR2I (10 μg/mL) was added to the wells. The cells were imaged at predetermined time points using a bright-field microscope. The distances between the scratch walls were measured using ImageJ to calculate the migration ratio
structure (smiles),measurement,setting,value
"CC(C)C[C@@H]1NC(=O)CNC(=O)[C@@H](NC(=O)[C@@H](N)CCC(=O)O)CSSC[C@@H](C(=O)N[C@@H](CCCCNC(=S)Nc2ccc3c(c2)C(=O)OC32c3ccc(O)cc3Oc3cc(O)ccc32)C(=O)O)NC(=O)[C@H](CC(C)C)NC(=O)[C@H](CCCNC(=N)N)NC(=O)[C@H](Cc2c[nH]c3ccccc23)NC(=O)[C@H](C(C)C)NC(=O)[C@H](CCCNC(=N)N)NC(=O)[C@H](CC(=O)O)NC(=O)[C@@H]2CCCN2C(=O)[C@H](CCCNC(=N)N)NC(=O)CNC(=O)[C@H](C(C)C)NC(=O)[C@@H]2CCCN2C(=O)[C@H](CC(C)C)NC1=O [PTβR2I, ECGLLPVGRPDRVWRLCK-FITC] (H-ECGLLPVGRPDRVWRLCK(FITC)-OH; disulfide 2-17; N-terminus and C-terminus assumed)","proliferation (dsDNA, day 3)",HaCaTs [1],Significantly improved proliferation
same,efficacy on db/+ mice,wounds of db/+ mice,not effective
same,expression of p-Smad2/3 in wounded skin,[2]; day 3,downregulated
same,expressions of p-Smad2/3 and α-SMA in wounded skin,[2]; day 8,without compromising
same,expression of p-p38 in wounded skin,"[2]; days 3 and 8, vs Gel group",downregulated; also recorded: continued to downregulate
same,cell viability,[3],no decrease in viability
same,migration,HaCaTs [4],significantly higher number of cells had migrated
